“Also recorded” adds a separate entry of the source.
How the values were obtained:
RARβ2 = assay: Semi-quantitative PCR of pancreatic tissue, LRAT -/- vitamin A deficient mice; assay type: in vivo; settings: AC261066 for 8 weeks
Experimental: FIG. 10. Gene expression of RARβ2 in pancreatic tissue from LRAT −/− vitamin A sufficient mice (VAS, normal control diet), LRAT −/− vitamin A deficient (VAD) mice, and LRAT −/− vitamin A deficient (VAD) mice treated with AC261066 for 8 weeks.
(§1) Total RNA was extracted from mouse tissues using TRIzol reagent (Life technologies) and (1 μg) was used to synthesize cDNA. cDNA synthesis was performed at 42° C. for 1 h in a final volume of 20 μl using qScript (Quanta, MD). Semi-quantitative PCR were performed Taq DNA polymerase (Invitrogen, CA). Three step PCR was run as follows: 94° C. for 30 s, 58-64° C. for 45 s for primer annealing and 72° C. for 1 min for primer extension. The number of cycles for each primer pair for amplification in the linear range was determined experimentally. PCR products were resolved on 2% agarose gels and visualized by staining with ehtidium bromide. Primers for gene expression used were as follows: […]

α-SMA = α-SMA immunofluorescence of liver sections (hepatic stellate cell activation); assay type: in vivo; settings: HF diet mice + AC261066 or CD1530, vs HF-vehicle
From the text: (§2) WT male C57/BL6 male mice were maintained on either a standard laboratory chow-fed diet (CFD) with 13% kcal fat, (diet #5053, Lab Diet, Inc, St. Louis, Mo.) or a high fat, western style diet (HFD) with 60% kcals from fat, (diet #58126, Lab Diet, Inc., St. Louis, Mo.) for 4 months. One month after the start of the high fat diet treatment, the high fat diet group was further split into 2 groups for 3 months: i) high fat diet and the drinking water containing 1% DMSO; ii) high fat diet and the drinking water containing 1.5 mg/100 ml AC261066, a specific RARβ agonist. Then mice were sacrificed by cervical dislocation. Blood and various tissue samples were harvested.
Staining. Fresh mouse liver samples were embedded in optimal cutting temperature (OCT) medium and immediately frozen to −70 centigrade. Cryosections were then fixed in 4% formaldehyde for 1 hr at room temp. Slides were then rinsed three times in deionized water (dH2O) for 30 s, followed by treatment with 0.5% Triton X-100 in PBS for 5 min. Sections were then washed three times with PBS for 5 min. Samples were with incubated 2% bovine serum albumin (BSA) for 30 min at room temperature to block for unspecific antibody binding. Following blocking, sections were washed three times in PBS and incubated with mouse monoclonal antibody against α-SMA (1:500) (Dako, Inc) for 24 h at 4° C. After 24 h sections were washed three times in PB and incubated with Alexa-Flour-488 anti-mouse secondary anti-body (1:500) (Invitrogen, Inc) for 30 min at room temperature. Sections were then washed three times in PBS and incubated with working strength oil-red O solution for 30 minutes at room temperature. Sections were then rinsed for 30 minutes under running tap water and cover-slipped with Vectashield hard mount plus DAPI (Vector Labs, Inc).

alpha-SMA = assay: Semi-quantitative PCR liver, alpha-SMA; assay type: in vivo; settings: HF diet mice + AC261066 or CD1530; vs HF-vehicle
From the text: as §2
as §1, with “resolved” for “resolved on”

TNF-α [1] = assay: Semi-quantitative PCR liver, TNF-α; assay type: in vivo; settings: HF diet mice + AC261066 or CD1530
From the text: as §2
as §1, with “resolved” for “resolved on”

[2] = Serum triglyceride level measurement; assay type: in vivo, mice; settings: HF+AC261066 feeding vs CF controls
From the text: as §2
The analysis of serum triglyceride levels was carried out using a bichromatic assay at the Laboratory of Comparative Pathology of the Memorial Sloan-Kettering Cancer Center. Chow-fed diet (CFD) n=2; high fat diet (HFD) n=3; high fat diet+AC261066 (HFDAC) n=5.

all-trans retinol = assay: HPLC analysis of serum retinol; assay type: in vivo; settings: CF, HF and HF+AC261066 fed mice
From the text: as §2
The frozen liver tissue samples (˜100 mg) were homogenized in 500 μl cold phosphate-buffered saline (PBS). In addition, 100 μl serum was diluted in cold PBS to total volume of 500 μl. Retinyl acetate was added to each sample before the retinoid extraction for the calculation of extraction efficiency. The retinoids were extracted into 350 μl of organic solution (acetonitrile/butanol, 50:50, v/v) in the dark. The high performance liquid chromatography (HPLC) was performed using a Waters Millennium system (Waters). […] The amounts of retinoids were calculated from the areas under the peaks detected at the wave-length of 325 nm. […]

renal lipid accumulation = assay: Hematoxylin and eosin staining of kidney sections; assay type: in vivo; settings: HF diet mice + AC261066 or CD1530; vs HF-vehicle
From the text: as §2
At sacrifice, fresh mouse liver samples were fixed in 4% formaldehyde solution for 24 hr and embedded in paraffin blocks. Kidney paraffin sections were cut 5 microns thick and mounted on glass slides and stained with hematoxylin and eosin (H and E) using standard protocols.

renal lipids = assay: Oil red O staining of kidney sections; assay type: in vivo; settings: HF diet mice + AC261066 vs HF vehicle
TNF-α [3] = assay: Semi-quantitative PCR kidney, TNF-α; assay type: in vivo; settings: HF diet mice + AC261066
From the text: as §2
as §1, with “(Invitrogen.” for “(Invitrogen,”

CCCCOCCOc1nc(-c2ccc(C(=O)O)c(F)c2)sc1C [AC261066]
RARβ2 mRNA levels in pancreas (RARβ2): increased the RARβ2 mRNA levels
α-SMA positive staining in liver (HSC activation) (α-SMA): diminished activation of hepatic stellate cells; also recorded: decreased expression of α-SMA; also recorded: decreased intensity and regions of α-SMA positive staining
α-SMA positive staining in liver (HSC activation) (α-SMA; listed as AC261011): α-SMA protein is decreased
hepatic mRNA levels of alpha-SMA (alpha-SMA): also decreased
mRNA levels of TNF-α in liver (TNF-α [1]): significantly diminish
serum triglyceride levels [2]: does not increase triglyceride levels; also recorded: does not affect serum triglyceride levels
serum levels of all-trans retinol (all-trans retinol): not different
renal lipid infiltration/accumulation (H and E) (renal lipid accumulation): diminished renal lipid accumulation; also recorded: markedly decreased renal lipid infiltration
kidney lipid accumulation (oil red O) (renal lipids): comparably less oil red o positive areas
mRNA levels of TNF-α in kidney (TNF-α [3]): reduces the levels of TNF-alpha

— patent US11207277B2, “Methods of treating diseases associated with high-fat diet and vitamin a deficiency using retinoic acid receptor agonists” (Cornell University, priority 2013, dated 2021)
